Where two headings read alike, the source gives them in different places.
System: Nitrosomonas europaea IF014298
Experiment: Bioluminescence nitrification inhibition assay using a nitrifying bacterium in vitro (luxAB-introduced Nitrosomonas europaea)
Type: cell-based
Details: for IC80: IF014298, 0.5 h, read-out: Nitrification inhibitory activity ED80; for nitrification inhibitory activity: result in words, conclusion from the bioluminescence assay (Table 2)
Method: The nitrification inhibitory action of 2,7-dimethoxy-1,4-naphthoquinone was analyzed using a nitrifying bacterium in vitro (T. Iizumi, M. Mizumoto, K. Nakamura, A Bioluminescence assay using Nitrosomonas europaea for rapid and sensitive detection of nitrification inhibitors (1998) Appl. Environment. Microbiol., 64, 3656-3662).
A nitrifying bacterium (Nitrosomonas europaea IF014298) into which a luciferase gene derived from a bacterium (luxAB) had been introduced was aerobically cultured at 30° C. for 7 to 9 days in a P culture medium containing kanamycin (25 mg/l L). The obtained nitrifying bacterium was washed and then suspended in a fresh P culture medium to prepare a nitrifying bacterial suspension. This nitrifying bacterial suspension was allowed to stand in a dark place for 30 minutes or more before the experiment.
Here, the composition of the P culture medium consisted of 2.5 g of (NH4)2SO4, 0.7 g of KH2PO4, 13.5 g of Na2HPO4, 0.5 g of NaHCO3, 100 mg of MgSO4/7H2O, 5 mg of CaCl2/2H2O, 1 mg of Fe-EDTA, and 1 L of water, and the pH thereof was 8.0.
After mixing in vitro an aqueous solution of the above-described nitrifying bacterial suspension, consisting of 0.25 mL of the above-described nitrifying bacterial suspension and 0.2 mL of water, with 0.01 mL of a sample solution of 2,7-dimethoxy-1,4-naphthoquinone at various concentrations, the amount of bioluminescence associated with the nitrification reaction during culturing at 15° C. for 30 minutes was measured using a luminometer (manufactured by Turner Designs, Inc., model name: TD20/20), whereby the nitrification action was evaluated.
The amount of bioluminescence associated with the nitrification reaction decreases in a case where a substance having a nitrification inhibitory action is present in the sample solution. Therefore, the amount of luminescence in a case where each of the sample solutions of 2,7-dimethoxy-1,4-naphthoquinone at various concentrations was added to the aqueous solution of the nitrifying bacterial suspension was divided by the amount of luminescence in the case of only using the aqueous solution of the bacterial cell suspension without the sample solution being added, thereby obtaining a value as the nitrification inhibition rate. The results of measuring the nitrification inhibitory activity of the present compound at various concentrations are shown in FIG. 5.
In addition, the nitrification inhibitory activity of the 1,4-naphthoquinone derivative was measured in the same manner. In Table 2, R^1 to R^6 are each R^1 to R^6 in Formula (1), respectively.

[1] = bioluminescence during culturing at 15° C. for 30 minutes, luxAB Nitrosomonas europaea suspension in P culture medium

| Compound | IC80 [1] | nitrification inhibitory activity | IC80 (Nitrosomonas europaea) | ED50 (nitrification inhibition, dose response curve of FIG. 5, second value printed as ED50 in the same sentence, 15° C., 30 minutes) | nitrification inhibitory activity (listed as 2,7-dimethoxy-1,4-naphthoquinone) | nitrification inhibitory activity (listed as zeanone) |
| --- | --- | --- | --- | --- | --- | --- |
| O=C1C=CC(=O)c2ccccc21 [1,4-Naphthoquinone] | 4.4 µM | have a nitrification inhibitory activity | – | – | – | – |
| O=C1C(Cl)=C(Cl)C(=O)c2ccccc21 [2,3-Dichloro-1,4-naphthoquinone] | 2.2 µM | have a nitrification inhibitory activity | – | – | – | – |
| O=C1C(Cl)=C(Cl)C(=O)c2c(O)ccc(O)c21 [2,3-Dichloro-5,8-dihydroxy-1,4-naphthoquinone] | 0.9 µM | have a nitrification inhibitory activity | – | – | – | – |
| NC1=C(Cl)C(=O)c2ccccc2C1=O [2-Amino-3-chloro-1,4-naphthoquinone] | 13.3 µM | have a nitrification inhibitory activity | – | – | – | – |
| O=C1C=C(Cl)C(=O)c2ccccc21 [2-Chloro-1,4-naphthoquinone] | 4 µM | have a nitrification inhibitory activity | – | – | – | – |
| O=C1C=C(O)C(=O)c2ccccc21 [2-Hydroxy-1,4-naphthoquinone] | > 100 µM | does not have a nitrification inhibitory activity | – | – | – | – |
| COC1=CC(=O)c2ccccc2C1=O [2-Methoxy-1,4-naphthoquinone] | 8.9 µM | have a nitrification inhibitory activity | – | – | – | – |
| CC1=CC(=O)c2ccccc2C1=O [2-Methyl-1,4-naphthoquinone] | 4.4 µM | have a nitrification inhibitory activity | – | – | – | – |
| O=C1C=CC(=O)c2c(O)ccc(O)c21 [5,8-Dihydroxy-1,4-naphthoquinone] | – | have a nitrification inhibitory activity | 2.2 µM | – | – | – |
| O=C1C=CC(=O)c2c(O)cccc21 [5-Hydroxy-1,4-naphthoquinone] | 1.1 µM | have a nitrification inhibitory activity | – | – | – | – |
| CC1=CC(=O)c2c(O)cccc2C1=O [5-Hydroxy-2-methyl-1,4-naphthoquinone] | 0.5 µM | have a nitrification inhibitory activity | – | – | – | – |
| Cc1ccc2c(c1)C(=O)C=CC2=O [6-Methyl-1,4-naphthoquinone] | 2.2 µM | have a nitrification inhibitory activity | – | – | – | – |
| COC1=CC(=O)c2ccc(OC)cc2C1=O [Zeanone, 2,7-dimethoxy-1,4-naphthoquinone] | 16.1 µM | – | – | 16.1 µM | have a nitrification inhibitory activity | excellent nitrification inhibitory action |
